Test results taken from patent US11465987B2, “Compounds for treatment of cancer” (ONCTERNAL THERAPEUTICS, INC., priority 2012, dated 2022).

System: PC-3 human prostate cancer cell line
Test: cells
Settings: Homo sapiens, read-out: IC50 PC-3
From the text: Cells were stained with SRB solution.

Going from `COc1cc(C(=O)c2csc(-c3cc4ccccc4[nH]3)n2)cc(OC)c1OC` [62a, (2-(1H-indol-2-yl)thiazol-4-yl)(3,4,5-trimethoxyphenyl)methanone] to `COc1cc(/C(=C/C#N)c2csc(-c3ccccc3)n2)cc(OC)c1OC` [2c-trans, (Z)-3-(2-phenylthiazol-4-yl)-3-(3,4,5-trimethoxyphenyl)acrylonitrile], the IC50 rises from 24 nM to 890 nM (37-fold).

Going from `COc1cc(C(=O)[C@@H]2CSC(c3ccc(O[Si](C)(C)C(C)(C)C)cc3)=N2)cc(OC)c1OC` [58a, (R)-(2-(4-(tert-Butyldimethylsilyloxy)phenyl)-4,5-dihydrothiazol-4-yl)(3,4,5-trimethoxyphenyl)methanone] to `COc1cc(/C(=C\C#N)c2csc(-c3ccccc3)n2)cc(OC)c1OC` [2c-cis, (E)-3-(2-phenylthiazol-4-yl)-3-(3,4,5-trimethoxyphenyl)acrylonitrile], the IC50 rises from 183 ± 24 nM to roughly 10000 nM (55-fold).

With `COc1cc(/C=C/c2csc(-c3ccccc3)n2)cc(OC)c1OC` [3b, (E)-2-Phenyl-4-(3,4,5-trimethoxystyryl)thiazole] the IC50 was greater than 10000 nM.

Same assay, conditions: Homo sapiens, read-out: IC50 PC-3, SRB assay, prostate cancer PC-3

`COc1cc(C(=O)c2csc(Nc3ccccc3)n2)cc(OC)c1OC` [5a, (2-(phenylamino)thiazol-4-yl)(3,4,5-trimethoxyphenyl)methanone] and `COc1cc(C(=O)c2csc(Nc3ccc(F)cc3)n2)cc(OC)c1OC` [5c, (2-(p-fluorophenylamino)thiazol-4-yl)(3,4,5-trimethoxyphenyl)methanone] are within 1.5-fold of each other in IC50: 57 ± 3 nM for the first, 43 ± 1 nM for the second.

`COc1cc(NS(=O)(=O)c2cccc(-c3ccccc3)c2)cc(OC)c1OC` [4d, N-(3,4,5-Trimethoxyphenyl)biphenyl-3-sulfonamide] and `COc1cc(S(=O)(=O)c2cccc(-c3ccccc3)c2)cc(OC)c1OC` [4b, 3-(3,4,5-Trimethoxyphenylsulfonyl)biphenyl] cannot be ordered by IC50: greater than 10000 nM for the first, greater than 10000 nM for the second.

Compared with `COc1cc(C(=O)Nc2csc(-c3ccccc3)n2)cc(OC)c1OC` [2h, 3,4,5-Trimethoxy-N-(2-phenylthiazol-4-yl)benzamide], `COc1cc(/C(=N/N)c2csc(-c3ccccc3)n2)cc(OC)c1OC` [2d-cis, (Z)-4-(hydrazono(3,4,5-trimethoxyphenyl)methyl)-2-phenylthiazole] is lower in IC50: greater than 10000 nM for the first, 1120 nM for the second.

`COc1cc([S+]([O-])c2cccc(-c3ccccc3)c2)cc(OC)c1OC` (stereo not shown) [4c, 3-(3,4,5-Trimethoxyphenylsulfinyl)biphenyl] and `COc1cc(-c2csc(-c3ccccc3)n2)cc(OC)c1OC` [2i, 2-Phenyl-4-(3,4,5-trimethoxyphenyl)thiazole] cannot be ordered by IC50: greater than 10000 nM for the first, greater than 10000 nM for the second.

`c1ccc(Nc2nccn2C(c2ccccc2)(c2ccccc2)c2ccccc2)cc1` [d, N-Phenyl-1-trityl-1H-imidazol-2-amine] and `COc1cc(C(=O)c2cn(C(c3ccccc3)(c3ccccc3)c3ccccc3)c(Nc3ccccc3)n2)cc(OC)c1OC` [e, (2-(Phenylamino)-1-trityl-1H-imidazol-4-yl)(3,4,5 trimethoxyphenyl)methanone] cannot be ordered by IC50: greater than 1000 nM for the first, greater than 1000 nM for the second.

First: COc1cc(C(=O)c2cc(-c3ccccc3)n[nH]2)cc(OC)c1OC [1k, (3-Phenyl-1H-pyrazol-5-yl)(3,4,5-trimethoxyphenyl)methanone]
Second: COc1cc(C(=O)c2c[nH]c(Nc3ccccc3)n2)cc(OC)c1OC [5e, (2-(phenylamino)-1H-imidazol-4-yl)(3,4,5-trimethoxyphenyl)methanone]
The IC50 of the first is lower: 101 nM for the first, greater than 1000 nM for the second. The first is the more potent here.

Compared with `COc1cc(C(=C(C)C)c2csc(-c3ccccc3)n2)cc(OC)c1OC` [2a, 4-(2-Methyl-1-(3,4,5-trimethoxyphenyl)prop-1-enyl)-2-phenylthiazole], `COc1cc(/C(=N\N)c2csc(-c3ccccc3)n2)cc(OC)c1OC` [2d-trans, (E)-4-(hydrazono(3,4,5-trimethoxyphenyl)methyl)-2-phenylthiazole] is 2.4-fold lower in IC50: 2470 nM for the first, 1040 nM for the second. The second is the more potent here.

First: COc1cc(C(=O)c2csc(Nc3ccc(Cl)cc3)n2)cc(OC)c1OC [5d, (2-(4-chlorophenylamino)thiazol-4-yl)(3,4,5-trimethoxyphenyl)methanone]
Second: COc1cc(C(=O)c2csc(-c3ccc(CNC(=O)OC(C)(C)C)cc3)n2)cc(OC)c1OC [68a, tert-Butyl 4-(4-(3,4,5-trimethoxybenzoyl)thiazol-2-yl)benzylcarbamate]
The IC50 of the first is 94-fold lower: 33 ± 1 nM for the first, 3100 nM for the second. The first is the more potent here.

`CO/N=C(/c1cc(OC)c(OC)c(OC)c1)c1csc(-c2ccccc2)n1` [2f-cis, (Z)-(2-Phenylthiazol-4-yl)(3,4,5-trimethoxyphenyl)methanone O-methyl oxime] and `CO/N=C(\c1cc(OC)c(OC)c(OC)c1)c1csc(-c2ccccc2)n1` [2f-trans, (E)-(2-Phenylthiazol-4-yl)(3,4,5-trimethoxyphenyl)methanone O-methyl oxime] cannot be ordered by IC50: greater than 10000 nM for the first, greater than 10000 nM for the second.

Same assay, conditions: Homo sapiens, read-out: IC50 ± SEM, PC-3

Work on `COc1cc(C(=O)c2cn(S(=O)(=O)c3ccccc3)c(-c3ccc4c(c3)cc(C(=O)c3cc(OC)c(OC)c(OC)c3)n4S(=O)(=O)c3ccccc3)n2)cc(OC)c1OC` [16xaa, (1-(phenylsulfonyl)-2-(1-(phenylsulfonyl)-2-(3,4,5-trimethoxybenzoyl)-1H-indol-5-yl)-1H-imidazol-4-yl)(3,4,5-trimethoxyphenyl)methanone] yielded an IC50 greater than 10000 nM.

Same assay, conditions: Homo sapiens, read-out: IC50 ± SEM, PC-3, Table 6A

Molecule `COc1cc(C(=NC#N)c2csc(-c3ccccc3)n2)cc(OC)c1O` [compound 32, N-((4-hydroxy-3,5-dimethoxyphenyl)(2-phenylthiazol-4-yl)methylene)cyanamide] has an IC50 of 2290 nM.

Same assay, conditions: Homo sapiens, read-out: IC50 ± SEM, PC-3, Table 12

First: COc1cc(C(=O)c2c[nH]c(-c3ccc(C(F)(F)F)cc3)n2)cc(OC)c1OC [12pa, (2-(4-(trifluoromethyl)phenyl)-1H-imidazol-4-yl)(3,4,5-trimethoxyphenyl)methanone]
Second: CN(C)c1ccc(-c2nc(C(=O)c3ccc(F)cc3)c[nH]2)cc1 [12gb, (2-(4-(dimethylamino)phenyl)-1H-imidazol-4-yl)(4-fluorophenyl)methanone]
The IC50 of the first is 1.6-fold higher: 127 nM for the first, 81 nM for the second. The second is the more potent here.

With `O=C(c1cc(O)c(O)c(O)c1)c1c[nH]c(-c2cc(O)c(O)c(O)c2)n1` [13ea, (3,4,5-trihydroxyphenyl)(2-(3,4,5-trihydroxyphenyl)-1H-imidazol-4-yl)methanone] the IC50 was greater than 10000 nM.

Same assay, conditions: Homo sapiens, read-out: IC50 ± SEM, PC-3, Table 13

`COc1ccc(C(=O)c2cn(S(=O)(=O)c3ccccc3)c(-c3ccccc3)n2)cc1` [11ab, (4-methoxyphenyl)(2-phenyl-1-(phenylsulfonyl)-1H-imidazol-4-yl)methanone] and `Cc1ccc(C(=O)c2cn(S(=O)(=O)c3ccccc3)c(-c3ccccc3)n2)cc1` [11ah, (2-phenyl-1-(phenylsulfonyl)-1H-imidazol-4-yl)(p-tolyl)methanone] cannot be ordered by IC50: greater than 10000 nM for the first, greater than 10000 nM for the second.

Compared with `COc1ccc(-c2nc(C(=O)c3ccc(F)cc3)cn2C)cc1` [12cba, (4-fluorophenyl)(2-(4-methoxyphenyl)-1-methyl-1H-imidazol-4-yl)methanone], `Cc1ccc(-c2nc(C(=O)c3ccc(F)cc3)cn2S(=O)(=O)c2ccccc2)cc1` [11db, (4-fluorophenyl)(1-(phenylsulfonyl)-2-(p-tolyl)-1H-imidazol-4-yl)methanone] is lower in IC50: greater than 10000 nM for the first, 80 nM for the second.

`COc1cccc(C(=O)c2cn(S(=O)(=O)c3ccccc3)c(-c3ccccc3)n2)c1` [11ac, (3-methoxyphenyl)(2-phenyl-1-(phenylsulfonyl)-1H-imidazol-4-yl)methanone] and `O=C(c1cccc(F)c1)c1cn(S(=O)(=O)c2ccccc2)c(-c2ccccc2)n1` [11ag, (3-fluorophenyl)(2-phenyl-1-(phenylsulfonyl)-1H-imidazol-4-yl)methanone] cannot be ordered by IC50: greater than 10000 nM for the first, greater than 10000 nM for the second.
